Experiment: Rivastigmine's biopharmaceutical properties in humans
Type: in vivo
Text: Little has been published in detail on Rivastigmine's biopharmaceutical properties in humans. […] It is subject to pre-systemic and systemic metabolism. […] Suitable test may be effected in fasted beagle dogs.

CCN(C)C(=O)Oc1cccc([C@H](C)N(C)C)c1 [Rivastigmine]
absorption: rapidly and completely absorbed | metabolism (esterases, e.g., acetyl and butyryl cholinesterase): metabolised mainly through hydrolysis by esterases | half-life (human, plasma): 1 h
